Measured values reported in patent US8952024B2, “Herbicidal pyrimidone derivatives” (E I du Pont de Nemours and Company, priority 2009, dated 2015).

Experiments:
Type in all cases: in vivo
[1] = test system: barnyardgrass (Echinochloa crus-galli); assay: Test A pre-/postemergence plant response; conditions: for Barnyardgrass plant response rating: visual injury, 0 to 100 scale (0 no effect, 100 complete control), approx. ten days
How it was run: (§1)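 Injury was scored visually after roughly ten days against untreated controls, 0 = no effect, 100 = complete control. Test chemicals in a surfactant-containing non-phytotoxic solvent were sprayed either onto soil preemergence or onto one- to two-leaf, 2–10 cm plants postemergence.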

corn (Zea mays) = assay: Test A pre-/postemergence plant response; conditions: for Corn plant response rating: visual injury, 0 to 100 scale (0 no effect, 100 complete control), approx. ten days
How it was run: as §1

[2] = test system: giant foxtail (Setaria faberii); assay: Test A pre-/postemergence plant response; conditions: for Foxtail, Giant plant response rating: visual injury, 0 to 100 scale (0 no effect, 100 complete control), approx. ten days
How it was run: as §1

[3] = test system: large crabgrass (Digitaria sanguinalis); assay: Test A pre-/postemergence plant response; conditions: for Crabgrass, Large plant response rating: visual injury, 0 to 100 scale (0 no effect, 100 complete control), approx. ten days
How it was run: as §1

[4] = test system: morningglory (Ipomoea spp.); assay: Test A pre-/postemergence plant response; conditions: for Morningglory plant response rating: visual injury, 0 to 100 scale (0 no effect, 100 complete control), approx. ten days
How it was run: as §1

[5] = test system: pigweed (Amaranthus retroflexus); assay: Test A pre-/postemergence plant response; conditions: for Pigweed plant response rating: visual injury, 0 to 100 scale (0 no effect, 100 complete control), approx. ten days
How it was run: as §1

[6] = test system: velvetleaf (Abutilon theophrasti); assay: Test A pre-/postemergence plant response; conditions: for Velvetleaf plant response rating: visual injury, 0 to 100 scale (0 no effect, 100 complete control), approx. ten days
How it was run: as §1

[7] = test system: wheat (Triticum aestivum); assay: Test A pre-/postemergence plant response; conditions: for Wheat plant response rating: visual injury, 0 to 100 scale (0 no effect, 100 complete control), approx. ten days
How it was run: as §1

[8] = test system: barnyardgrass (Echinochloa crus-galli); assay: Test B flooded paddy test; conditions: for Plant response rating, Flood, Barnyardgrass: 250 g ai/ha, flooded paddy test, visual rating on 0 to 100 scale (0 no effect, 100 complete control) after 13 to 15 days; for Plant response rating, Barnyardgrass: Flood (flooded paddy test), 13 to 15 days; for Barnyardgrass plant response rating: Flood, 31 g ai/ha, scale 0 to 100 (0 no effect, 100 complete control)
How it was run: (§2)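 Visual scores run from 0 (no effect) to 100 (complete control), assigned by comparison with controls 13 to 15 days after treatment. Test compounds went straight into water standing 3 cm above the soil, around plants at the 2-leaf stage kept in a greenhouse.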

[9] = test system: ducksalad (Heteranthera limosa); assay: Test B flooded paddy test; conditions: for Plant response rating, Flood, Ducksalad: 250 g ai/ha, flooded paddy test, visual rating on 0 to 100 scale (0 no effect, 100 complete control) after 13 to 15 days; for Plant response rating, Ducksalad: Flood (flooded paddy test), 13 to 15 days; for Ducksalad plant response rating: Flood, 31 g ai/ha, scale 0 to 100 (0 no effect, 100 complete control)
How it was run: as §2

rice (Oryza sativa) = assay: Test B flooded paddy test; conditions: for Plant response rating, Flood, Rice: 250 g ai/ha, flooded paddy test, visual rating on 0 to 100 scale (0 no effect, 100 complete control) after 13 to 15 days; for Plant response rating, Rice: Flood (flooded paddy test), 13 to 15 days; for Rice plant response rating: Flood, 31 g ai/ha, scale 0 to 100 (0 no effect, 100 complete control)
How it was run: as §2

[10] = test system: umbrella sedge (Cyperus difformis); assay: Test B flooded paddy test; conditions: for Plant response rating, Flood, Sedge, Umbrella: 250 g ai/ha, flooded paddy test, visual rating on 0 to 100 scale (0 no effect, 100 complete control) after 13 to 15 days; for Plant response rating, Sedge, Umbrella: Flood (flooded paddy test), 13 to 15 days; for Sedge, Umbrella plant response rating: Flood, 31 g ai/ha, scale 0 to 100 (0 no effect, 100 complete control)
How it was run: as §2

[11] = Postemergence, 125 g ai/ha, 0 to 100 scale where 0 is no effect and 100 is complete control
[12] = Preemergence, 125 g ai/ha, 0 to 100 scale, 0 = no effect, 100 = complete control
[13] = Preemergence, 500 g ai/ha, 0 to 100 scale, 0 = no effect, 100 = complete control
[14] = 62 g ai/ha, scale of 0 to 100 where 0 is no effect and 100 is complete control
[15] = 125 g ai/ha, scale 0 to 100, 0 is no effect, 100 is complete control

COCCn1c(-c2ccsc2)ncc(C(=O)C2=C(O)C3CCC(C3)C2=O)c1=O (stereo not drawn) [Compound 228]
Plant response rating, Barnyardgrass [1, 11]: 90
Barnyardgrass plant response rating ([1]; Postemergence, 500 g ai/ha): 90
Plant response rating, Barnyardgrass [1, 12]: 40
Plant response rating, Barnyardgrass [1, 13]: 100
Plant response rating, Corn (corn (Zea mays); [11]): 50
Corn plant response rating (corn (Zea mays); Postemergence, 500 g ai/ha): 90
Plant response rating, Corn (corn (Zea mays); [12]): 0
Plant response rating, Corn (corn (Zea mays); [13]): 50
Plant response rating, Foxtail, Giant [2, 11]: 90
Foxtail, Giant plant response rating ([2]; Postemergence, 500 g ai/ha): 90
Plant response rating, Foxtail, Giant [2, 12]: 50
Plant response rating, Foxtail, Giant [2, 13]: 90
Plant response rating, Crabgrass, Large [3, 11]: 90
Crabgrass, Large plant response rating ([3]; Postemergence, 500 g ai/ha): 100
Plant response rating, Crabgrass, Large [3, 12]: 100
Plant response rating, Crabgrass, Large [3, 13]: 100
Plant response rating, Morningglory [4, 11]: 100
Morningglory plant response rating ([4]; Postemergence, 500 g ai/ha): 100
Plant response rating, Morningglory [4, 12]: 70
Plant response rating, Morningglory [4, 13]: 80
Plant response rating, Pigweed [5, 11]: 100
Pigweed plant response rating ([5]; Postemergence, 500 g ai/ha): 100
Plant response rating, Pigweed [5, 12]: 100
Plant response rating, Pigweed [5, 13]: 100
Plant response rating, Velvetleaf [6, 11]: 100
Velvetleaf plant response rating ([6]; Postemergence, 500 g ai/ha): 100
Plant response rating, Velvetleaf [6, 12]: 100
Plant response rating, Velvetleaf [6, 13]: 100
Plant response rating, Wheat [7, 11]: 0
Wheat plant response rating ([7]; Postemergence, 500 g ai/ha): 20
Plant response rating, Wheat [7, 12]: 0
Plant response rating, Wheat [7, 13]: 0
Plant response rating, Flood, Barnyardgrass [8]: 80
Plant response rating, Barnyardgrass [8, 14]: 40
Plant response rating, Barnyardgrass [8, 15]: 75
Barnyardgrass plant response rating [8]: 15
Plant response rating, Flood, Ducksalad [9]: 80
Plant response rating, Ducksalad [9, 14]: 50
Plant response rating, Ducksalad [9, 15]: 75
Ducksalad plant response rating [9]: 40
Plant response rating, Flood, Rice (rice (Oryza sativa)): 60
Plant response rating, Rice (rice (Oryza sativa); [14]): 20
Plant response rating, Rice (rice (Oryza sativa); [15]): 35
Rice plant response rating (rice (Oryza sativa)): 0
Plant response rating, Flood, Sedge, Umbrella [10]: 85
Plant response rating, Sedge, Umbrella [10, 14]: 75
Plant response rating, Sedge, Umbrella [10, 15]: 75
Sedge, Umbrella plant response rating [10]: 65

O=C(C1=C(O)C2CCC(C2)C1=O)c1cnc(-c2ccsc2)n(CC2CCCO2)c1=O (stereo not drawn) [Compound 229]
Plant response rating, Barnyardgrass [1, 11]: 90
Barnyardgrass plant response rating ([1]; Postemergence, 500 g ai/ha): 100
Plant response rating, Barnyardgrass [1, 12]: 0
Plant response rating, Barnyardgrass [1, 13]: 70
Plant response rating, Corn (corn (Zea mays); [11]): 0
Corn plant response rating (corn (Zea mays); Postemergence, 500 g ai/ha): 40
Plant response rating, Corn (corn (Zea mays); [12]): 0
Plant response rating, Corn (corn (Zea mays); [13]): 0
Plant response rating, Foxtail, Giant [2, 11]: 90
Foxtail, Giant plant response rating ([2]; Postemergence, 500 g ai/ha): 100
Plant response rating, Foxtail, Giant [2, 12]: 50
Plant response rating, Foxtail, Giant [2, 13]: 60
Plant response rating, Crabgrass, Large [3, 11]: 80
Crabgrass, Large plant response rating ([3]; Postemergence, 500 g ai/ha): 100
Plant response rating, Crabgrass, Large [3, 12]: 80
Plant response rating, Crabgrass, Large [3, 13]: 100
Plant response rating, Morningglory [4, 11]: 100
Morningglory plant response rating ([4]; Postemergence, 500 g ai/ha): 100
Plant response rating, Morningglory [4, 12]: 40
Plant response rating, Morningglory [4, 13]: 80
Plant response rating, Pigweed [5, 11]: 100
Pigweed plant response rating ([5]; Postemergence, 500 g ai/ha): 100
Plant response rating, Pigweed [5, 12]: 90
Plant response rating, Pigweed [5, 13]: 100
Plant response rating, Velvetleaf [6, 11]: 100
Velvetleaf plant response rating ([6]; Postemergence, 500 g ai/ha): 100
Plant response rating, Velvetleaf [6, 12]: 100
Plant response rating, Velvetleaf [6, 13]: 100
Plant response rating, Wheat [7, 11]: 0
Wheat plant response rating ([7]; Postemergence, 500 g ai/ha): 20
Plant response rating, Wheat [7, 12]: 0
Plant response rating, Wheat [7, 13]: 0
Plant response rating, Flood, Barnyardgrass [8]: 30
Plant response rating, Barnyardgrass [8, 14]: 0
Plant response rating, Barnyardgrass [8, 15]: 0
Barnyardgrass plant response rating [8]: 0
Plant response rating, Flood, Ducksalad [9]: 40
Plant response rating, Ducksalad [9, 14]: 0
Plant response rating, Ducksalad [9, 15]: 0
Ducksalad plant response rating [9]: 0
Plant response rating, Flood, Rice (rice (Oryza sativa)): 20
Plant response rating, Rice (rice (Oryza sativa); [14]): 0
Plant response rating, Rice (rice (Oryza sativa); [15]): 0
Rice plant response rating (rice (Oryza sativa)): 0
Plant response rating, Flood, Sedge, Umbrella [10]: 70
Plant response rating, Sedge, Umbrella [10, 14]: 0
Plant response rating, Sedge, Umbrella [10, 15]: 50
Sedge, Umbrella plant response rating [10]: 0
